# Reference: patent US20220160812A1, “A PHARMACEUTICALLY ACTIVE SUBSTANCE” (Cytopharma GmbH, priority 2019, published 2022)
# Entries after “also recorded” stand apart in the source; their conditions may differ. Non-standard residues stand in square brackets, D forms with d. Residues, ends and D or L forms follow the SMILES beside them.
# Tested on: human peripheral blood mononuclear cells (Lymphocyte, PBMC)
# Assay: cell vitality FACS analysis (region R-1), healthy lymphocytes (PBMC)
# Format: cell-based
# Conditions: Protocol A, 50, 100, 200 μM, about 24 hours per Examples (FIG. 11 legend: about 2 hours)
# Experimental: Human lymphocytes are obtained as peripheral blood mononuclear cells (“PBMC”) from whole blood. For this purpose, 15 ml of heparinized whole blood (heparin tube, Sarstedt) were layered on 15 ml Biocoll in LeucoSep tubes and obtained by centrifugation (10 min at 120 g) as the top layer (“lymphocytes”) and so separated from other cells. For induction with peptides, 1×10^6 lymphocytes are seeded into each well of the 48-well plates.
# After addition of the peptides diluted in culture medium to the cells (MEC-1 or lymphocytes) in the respective cavity, the cells are cultured for 2 to 4 hours at 37 degrees Celsius and 5% CO2. The cell suspension is centrifuged in centrifuge tubes at 120 g, the cells are suspended in 500 μl serum-free culture medium, then 1.5 ml of cold 80% ethanol (ethanol/PBS-80/20, v/v; stored at −20 degrees Celsius) is added, the FACS tubes sealed and stored at −20 degrees Celsius for a maximum of 18 h. The cells are centrifuged for 5 min at 120 g and suspended in 2 ml PBS, then incubated for 30 min at 37 degrees Celsius. After renewed centrifugation, the cells are suspended in 0.5 ml DAPI solution and incubated for 15 min at 20 degrees Celsius in the dark. Thereafter, the cells are stored dark for a maximum of four hours in an ice bath, then the FACS analysis.
# To transfer adherent cells (A375 and BxPC-3 cells) after culture, cells are washed twice with PBS. To detach the cells, the enzyme biotase is used according to the manufacturer's instructions. For this purpose, after washing with PBS, the cells are mixed with biotase (5 ml of biotase solution per 75 cm^2 surface of the cell culture bottles) and incubated for 5 min at 37 degrees Celsius, and the biotase is separated by centrifugation. Cells cultivated in suspension (MEC-1 and lymphocytes) were transferred by dilution. The cells are suspended in culture medium and counted, each time 1.5×10^5 cells/cm^2 are seeded in 48-well plates and cultured for between 1.5 and 24 hours at 37 degrees Celsius, 5% CO2. Peptides are pre-diluted from stock solution with culture medium and 200 μl of peptide solution added so that final concentrations of 30 to 500 μM peptide are present in at most 1% (v/v) DMSO. As control solutions, culture medium without peptide (DMSO-containing) in culture medium or etoposide solution is added. After incubating the cells for several hours, the cell supernatant is transferred to a FACS tube for each batch and, after washing the cells with PBS, the wash solution is added. Then the cells are incubated with 200 μl of biotase solution for 10 min, 37° C., the cells with the biotase are also transferred to the FACS tube and the cells are collected by centrifugation for 5 min. The cell pellet is suspended in 500 μl of serum-free culture medium, then 1.5 ml of cold 80% ethanol (ethanol/PBS-80/20, v/v, stored at −20° C.) is added, the FACS tubes sealed and stored at −20 degrees Celsius for 15 to 18 h. Thereafter, the cells are centrifuged for 5 minutes at 120 g, suspended after removal of the supernatant in 2 ml PBS and incubated at 37 degrees Celsius for 30 minutes. After re-centrifugation, the cells are suspended in 0.5 ml DAPI solution and incubated for 15 min at 20 degrees Celsius in the dark. Thereafter, the cells are stored dark for a maximum of four hours in an ice bath, followed by the FACS analysis.
# Changes of the cell form during cell death by apoptosis are documented in the literature (Lizard et al. 1995; Taga et al. 2000; Vermes et al., 2000). The protocols for cell cultivation, treatment and preparation of the cells before flow cytometry is detailed in separate examples. Cell suspensions of cell lines A375, BxPC-3, MEC-1 or of primary lymphocytes (see separate example of lymphocyte preparation) are analyzed by flow cytometry. The data are further analyzed by using the program “Flowing Software 2”. The data of light scattering are drawn in a two-dimensional FSC/SSC plot. […]
row,SMILES,tolerance by healthy Lymphocyte (PBMC) cells (cell vitality)
1,"CSCC[C@@H](NC(=O)[C@@H](Cc1c[nH]c2ccccc12)NC(=O)[C@@H](CCCCN)NC(=O)[C@H](N)CCCCN)C(=O)N[C@@H](C(=O)N[C@@H](C(=O)N[C@H](Cc1ccc(O)cc1)C(=O)N[C@H](Cc1ccccc1)C(=O)N[C@H](CCCNC(=N)N)C(=O)N[C@H](CCCCN)C(=O)N[C@H](CCC(=O)O)C(=O)N[C@H](C)C(=O)N[C@H](CCCNC(=N)N)C(=O)O)C(C)C)C(C)C [SEQID No 32, k-k-w-m-v-v-y-f-r-k-e-a-r] (H-[dK][dK][dW][dM][dV][dV][dY][dF][dR][dK][dE][dA][dR]-OH; N-terminus and C-terminus assumed)",not remarkably damaged
2,"CSCC[C@@H](NC(=O)[C@@H](Cc1c[nH]c2ccccc12)NC(=O)[C@@H](CCCCN)NC(=O)[C@H](N)CCCCN)C(=O)N[C@@H](C(=O)N[C@@H](C(=O)N[C@H](Cc1ccc(O)cc1)C(=O)N[C@H](Cc1ccccc1)C(=O)N[C@H](CCCNC(=N)N)C(=O)N[C@H](CCCCN)C(=O)N[C@H](CO)C(=O)N[C@H](CO)C(=O)N[C@H](CCCNC(=N)N)C(=O)O)C(C)C)C(C)C [SEQID No 30, k-k-w-m-v-v-y-f-r-k-s-s-r] (H-[dK][dK][dW][dM][dV][dV][dY][dF][dR][dK][dS][dS][dR]-OH; N-terminus and C-terminus assumed)",well tolerated
3,"CSCC[C@@H](NC(=O)[C@@H](Cc1c[nH]c2ccccc12)NC(=O)[C@@H](CCCCN)NC(=O)[C@H](N)CCCCN)C(=O)N[C@@H](C(=O)N[C@@H](C(=O)N[C@H](Cc1ccc(O)cc1)C(=O)N[C@H](Cc1ccccc1)C(=O)N[C@H](CCCNC(=N)N)C(=O)O)C(C)C)C(C)C [SEQID No 25, k-k-w-m-v-v-y-f-r] (H-[dK][dK][dW][dM][dV][dV][dY][dF][dR]-OH; N-terminus and C-terminus assumed)",not so well tolerated by the healthy cells
4,"CSCC[C@@H](NC(=O)[C@@H](Cc1c[nH]c2ccccc12)NC(=O)[C@H](N)CCCCN)C(=O)N[C@@H](C(=O)N[C@@H](C(=O)N[C@H](Cc1ccc(O)cc1)C(=O)N[C@H](Cc1ccccc1)C(=O)N[C@H](CCCNC(=N)N)C(=O)N[C@H](CCCCN)C(=O)O)C(C)C)C(C)C [SEQID No 26, k-w-m-v-v-y-f-r-k] (H-[dK][dW][dM][dV][dV][dY][dF][dR][dK]-OH; N-terminus and C-terminus assumed)",not so well tolerated by the healthy cells
5,"CSCC[C@@H](NC(=O)[C@@H](Cc1c[nH]c2ccccc12)NC(=O)[C@@H](CCCCN)NC(=O)[C@@H](CCCCN)NC(=O)[C@H](NC(=O)[C@@H](CO)NC(=O)[C@H](N)CCCNC(=N)N)[C@H](C)O)C(=O)N[C@@H](C(=O)N[C@@H](C(=O)N[C@H](Cc1ccc(O)cc1)C(=O)N[C@H](Cc1ccccc1)C(=O)N[C@H](CCCNC(=N)N)C(=O)N[C@H](CCCCN)C(=O)O)C(C)C)C(C)C [SEQID No 33, r-s-t-k-k-w-m-v-v-y-f-r-k] (H-[dR][dS][dT][dK][dK][dW][dM][dV][dV][dY][dF][dR][dK]-OH; N-terminus and C-terminus assumed)",not remarkably damaged; also recorded: well tolerated
6,"CSCC[C@@H](NC(=O)[C@@H](Cc1c[nH]c2ccccc12)NC(=O)[C@@H](CCCCN)NC(=O)[C@H](N)CCCCN)C(=O)N[C@@H](C(=O)N[C@@H](C(=O)N[C@H](Cc1ccc(O)cc1)C(=O)N[C@H](Cc1ccccc1)C(=O)N[C@H](CCCNC(=N)N)C(=O)N[C@H](CCCCN)C(=O)O)C(C)C)C(C)C [SEQID No 27, k-k-w-m-v-v-y-f-r-k] (H-[dK][dK][dW][dM][dV][dV][dY][dF][dR][dK]-OH; N-terminus and C-terminus assumed)",not remarkably damaged; also recorded: very good tolerated by the healthy cells (low toxic effect)

# Same assay, conditions: Protocol A, 50, 100, 200 μM, about 24 hours per Examples (FIG. 11 legend: about 2 hours), listed as SEQID NO 30
row,SMILES,tolerance by healthy Lymphocyte (PBMC) cells (cell vitality)
1,"CSCC[C@@H](NC(=O)[C@@H](Cc1c[nH]c2ccccc12)NC(=O)[C@@H](CCCCN)NC(=O)[C@H](N)CCCCN)C(=O)N[C@@H](C(=O)N[C@@H](C(=O)N[C@H](Cc1ccc(O)cc1)C(=O)N[C@H](Cc1ccccc1)C(=O)N[C@H](CCCNC(=N)N)C(=O)N[C@H](CCCCN)C(=O)N[C@H](CO)C(=O)N[C@H](CO)C(=O)N[C@H](CCCNC(=N)N)C(=O)O)C(C)C)C(C)C [SEQID No 30, k-k-w-m-v-v-y-f-r-k-s-s-r] (H-[dK][dK][dW][dM][dV][dV][dY][dF][dR][dK][dS][dS][dR]-OH; N-terminus and C-terminus assumed)",not remarkably damaged
